{"source": "paper PMC7960226", "about": "(Science (New York, N.Y.), 2020)", "key": {"NR1I2": {"biological_target": "NR1I2 (Homo sapiens, UniProt O75469)", "test": "safety panel assay, NR1I2", "assay_type": "binding", "settings": "Table 2, NR1I2; accurate to ±20%"}, "[1]": {"tested_on": "BioMAP Diversity PLUS panel", "test": "BioMAP Diversity PLUS panel of cell-based systems"}, "ABCB11": {"biological_target": "ABCB11 (Homo sapiens, UniProt O95342)", "test": "transporter inhibition, ABCB11", "assay_type": "biochemical", "settings": "Table 2, ABCB11; accurate to ±20%"}, "SLC18A2": {"biological_target": "SLC18A2 (Homo sapiens, UniProt Q05940)", "sequence (Q05940 whole entry, species assumed)": "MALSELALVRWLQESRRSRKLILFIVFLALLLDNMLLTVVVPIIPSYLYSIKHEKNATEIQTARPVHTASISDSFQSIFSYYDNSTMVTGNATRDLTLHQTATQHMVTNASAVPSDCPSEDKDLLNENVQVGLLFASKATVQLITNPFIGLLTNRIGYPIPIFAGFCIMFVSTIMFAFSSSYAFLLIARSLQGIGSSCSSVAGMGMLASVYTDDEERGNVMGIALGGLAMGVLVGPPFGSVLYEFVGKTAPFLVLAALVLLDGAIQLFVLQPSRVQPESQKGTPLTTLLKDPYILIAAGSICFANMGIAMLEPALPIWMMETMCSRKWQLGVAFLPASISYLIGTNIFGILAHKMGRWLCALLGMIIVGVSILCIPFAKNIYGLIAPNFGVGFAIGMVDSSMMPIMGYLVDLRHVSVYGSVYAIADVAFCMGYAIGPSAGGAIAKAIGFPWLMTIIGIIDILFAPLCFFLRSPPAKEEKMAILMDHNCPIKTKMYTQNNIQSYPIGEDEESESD", "test": "transporter inhibition, SLC18A2", "assay_type": "biochemical", "settings": "Table 2, SLC18A2; accurate to ±20%"}, "SLC6A2": {"biological_target": "SLC6A2 (Homo sapiens, UniProt P23975)", "settings": "Table 2, SLC6A2; accurate to ±20%"}, "SLCO2B1": {"biological_target": "T1, SLCO2B1 (Homo sapiens, UniProt O94956)", "T1 sequence (O94956 1-709)": "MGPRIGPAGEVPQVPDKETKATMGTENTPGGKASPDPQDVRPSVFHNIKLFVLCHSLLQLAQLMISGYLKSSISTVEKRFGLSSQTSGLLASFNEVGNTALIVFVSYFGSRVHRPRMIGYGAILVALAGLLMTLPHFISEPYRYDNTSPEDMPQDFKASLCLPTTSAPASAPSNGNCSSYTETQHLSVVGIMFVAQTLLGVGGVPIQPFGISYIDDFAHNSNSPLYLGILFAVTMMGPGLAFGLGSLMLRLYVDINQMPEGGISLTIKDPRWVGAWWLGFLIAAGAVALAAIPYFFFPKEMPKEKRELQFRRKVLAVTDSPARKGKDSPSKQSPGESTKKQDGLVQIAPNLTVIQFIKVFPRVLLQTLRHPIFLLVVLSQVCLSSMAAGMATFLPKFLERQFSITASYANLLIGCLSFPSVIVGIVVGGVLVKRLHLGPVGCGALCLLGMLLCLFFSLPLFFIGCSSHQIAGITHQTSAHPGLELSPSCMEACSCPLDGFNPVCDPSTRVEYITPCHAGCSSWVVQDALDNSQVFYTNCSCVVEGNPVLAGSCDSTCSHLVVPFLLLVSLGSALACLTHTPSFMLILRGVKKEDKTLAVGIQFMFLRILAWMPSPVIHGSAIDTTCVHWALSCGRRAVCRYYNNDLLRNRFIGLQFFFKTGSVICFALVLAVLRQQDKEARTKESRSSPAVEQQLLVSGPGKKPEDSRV", "test": "in vitro transporter inhibition, SLCO2B1", "assay_type": "biochemical"}, "TBXA2R": {"biological_target": "TBXA2R (Homo sapiens, UniProt P21731)", "sequence (P21731 whole entry, species assumed)": "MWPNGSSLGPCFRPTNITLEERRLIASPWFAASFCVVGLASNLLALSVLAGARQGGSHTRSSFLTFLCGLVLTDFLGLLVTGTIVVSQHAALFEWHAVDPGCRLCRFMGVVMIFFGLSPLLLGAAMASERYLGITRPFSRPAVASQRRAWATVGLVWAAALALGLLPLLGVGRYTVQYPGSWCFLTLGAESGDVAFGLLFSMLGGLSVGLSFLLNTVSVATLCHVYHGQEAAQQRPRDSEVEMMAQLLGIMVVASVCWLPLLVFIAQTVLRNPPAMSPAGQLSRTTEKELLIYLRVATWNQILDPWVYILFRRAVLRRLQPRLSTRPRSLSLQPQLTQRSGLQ", "test": "safety panel assay, TBXA2R", "assay_type": "binding"}, "[2]": {"test": "Madin-Darby canine kidney permeability assay", "settings": "dog, MDCK"}, "ADRA1A": {"biological_target": "T2, ADRA1A (Homo sapiens, UniProt P35348)", "T2 sequence (P35348 1-466)": "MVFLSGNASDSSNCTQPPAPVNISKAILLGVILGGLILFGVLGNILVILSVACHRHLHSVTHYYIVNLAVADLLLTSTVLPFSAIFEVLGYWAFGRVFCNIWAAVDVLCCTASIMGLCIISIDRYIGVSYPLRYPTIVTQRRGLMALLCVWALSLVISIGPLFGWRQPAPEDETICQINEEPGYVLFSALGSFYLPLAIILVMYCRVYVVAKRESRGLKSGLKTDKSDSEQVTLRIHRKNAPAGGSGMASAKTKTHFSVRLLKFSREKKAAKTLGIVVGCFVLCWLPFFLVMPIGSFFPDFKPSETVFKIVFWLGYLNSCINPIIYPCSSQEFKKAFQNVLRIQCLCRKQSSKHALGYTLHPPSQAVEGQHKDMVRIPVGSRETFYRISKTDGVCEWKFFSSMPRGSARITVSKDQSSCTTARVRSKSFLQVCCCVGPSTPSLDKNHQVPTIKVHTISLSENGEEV", "settings": "Table 2, ADRA1A; accurate to ±20%"}, "CHRM1": {"biological_target": "T3, CHRM1 (Homo sapiens, UniProt P11229)", "T3 sequence (P11229 1-460)": "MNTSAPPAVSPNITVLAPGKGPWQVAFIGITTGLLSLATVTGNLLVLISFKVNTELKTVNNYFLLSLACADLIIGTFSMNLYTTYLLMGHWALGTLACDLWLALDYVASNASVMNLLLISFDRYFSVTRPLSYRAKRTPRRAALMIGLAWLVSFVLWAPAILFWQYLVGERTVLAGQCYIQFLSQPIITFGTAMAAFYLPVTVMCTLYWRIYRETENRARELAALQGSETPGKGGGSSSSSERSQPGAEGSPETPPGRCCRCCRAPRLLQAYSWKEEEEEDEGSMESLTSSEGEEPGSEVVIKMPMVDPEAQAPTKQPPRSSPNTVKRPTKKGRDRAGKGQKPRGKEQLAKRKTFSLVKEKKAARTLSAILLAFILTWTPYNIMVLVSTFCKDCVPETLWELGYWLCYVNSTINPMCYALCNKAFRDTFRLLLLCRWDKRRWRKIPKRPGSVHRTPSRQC"}, "SLC6A3": {"biological_target": "SLC6A3 (Homo sapiens, UniProt Q01959)", "sequence (Q01959 whole entry, species assumed)": "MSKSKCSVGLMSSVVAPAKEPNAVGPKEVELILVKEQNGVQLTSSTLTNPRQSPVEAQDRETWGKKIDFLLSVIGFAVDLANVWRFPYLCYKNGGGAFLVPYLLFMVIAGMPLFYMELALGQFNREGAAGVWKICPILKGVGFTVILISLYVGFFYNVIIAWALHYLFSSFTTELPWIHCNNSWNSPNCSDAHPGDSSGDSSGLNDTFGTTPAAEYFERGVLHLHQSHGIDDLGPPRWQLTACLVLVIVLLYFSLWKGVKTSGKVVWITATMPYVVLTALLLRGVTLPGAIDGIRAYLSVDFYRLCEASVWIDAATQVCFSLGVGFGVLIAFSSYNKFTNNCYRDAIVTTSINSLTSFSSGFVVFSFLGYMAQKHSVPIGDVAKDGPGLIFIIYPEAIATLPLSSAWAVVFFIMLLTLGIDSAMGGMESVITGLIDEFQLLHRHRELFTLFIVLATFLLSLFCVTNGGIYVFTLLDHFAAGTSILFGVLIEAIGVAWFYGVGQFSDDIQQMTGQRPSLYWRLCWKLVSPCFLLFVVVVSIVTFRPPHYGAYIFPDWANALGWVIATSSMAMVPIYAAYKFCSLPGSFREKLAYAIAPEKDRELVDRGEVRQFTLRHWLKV", "test": "safety panel assay, SLC6A3", "assay_type": "biochemical", "settings": "Table 2, SLC6A3; accurate to ±20%"}, "[3]": {"test": "Pharmacokinetics in rats after i.v. and oral administration", "settings": "rat"}, "SCN5A": {"biological_target": "SCN5A (Homo sapiens, UniProt Q14524)", "settings": "Table 2, SCN5A; accurate to ±20%"}, "PDE4D": {"biological_target": "PDE4D (Homo sapiens, UniProt Q08499)", "sequence (Q08499 whole entry)": "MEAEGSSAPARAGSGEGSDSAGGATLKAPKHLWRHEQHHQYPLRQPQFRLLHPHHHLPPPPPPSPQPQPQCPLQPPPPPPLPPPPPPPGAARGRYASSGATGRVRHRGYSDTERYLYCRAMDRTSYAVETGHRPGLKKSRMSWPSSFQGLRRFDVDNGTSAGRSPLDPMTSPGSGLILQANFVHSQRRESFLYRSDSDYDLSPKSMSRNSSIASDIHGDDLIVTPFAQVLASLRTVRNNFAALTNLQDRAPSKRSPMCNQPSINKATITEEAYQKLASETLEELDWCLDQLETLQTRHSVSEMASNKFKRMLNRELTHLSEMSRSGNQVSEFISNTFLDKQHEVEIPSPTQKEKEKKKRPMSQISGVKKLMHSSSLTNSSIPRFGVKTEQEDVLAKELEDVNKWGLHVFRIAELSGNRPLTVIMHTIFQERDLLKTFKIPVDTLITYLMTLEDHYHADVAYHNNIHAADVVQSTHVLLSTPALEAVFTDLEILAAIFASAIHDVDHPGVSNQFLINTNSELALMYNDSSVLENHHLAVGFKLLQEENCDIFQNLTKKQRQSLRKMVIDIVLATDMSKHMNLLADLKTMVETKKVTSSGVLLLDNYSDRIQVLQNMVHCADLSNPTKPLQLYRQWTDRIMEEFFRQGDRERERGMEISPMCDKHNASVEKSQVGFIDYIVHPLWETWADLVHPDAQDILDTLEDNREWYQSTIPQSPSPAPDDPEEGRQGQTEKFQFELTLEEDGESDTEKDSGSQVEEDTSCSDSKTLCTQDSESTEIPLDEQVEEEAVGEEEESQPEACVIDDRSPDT", "test": "in vitro assay, PDE4D", "assay_type": "biochemical", "settings": "Table 2, PDE4D; accurate to ±20%"}, "PRG": {"biological_target": "PRG (Homo sapiens, UniProt P06401)", "sequence (P06401 whole entry)": "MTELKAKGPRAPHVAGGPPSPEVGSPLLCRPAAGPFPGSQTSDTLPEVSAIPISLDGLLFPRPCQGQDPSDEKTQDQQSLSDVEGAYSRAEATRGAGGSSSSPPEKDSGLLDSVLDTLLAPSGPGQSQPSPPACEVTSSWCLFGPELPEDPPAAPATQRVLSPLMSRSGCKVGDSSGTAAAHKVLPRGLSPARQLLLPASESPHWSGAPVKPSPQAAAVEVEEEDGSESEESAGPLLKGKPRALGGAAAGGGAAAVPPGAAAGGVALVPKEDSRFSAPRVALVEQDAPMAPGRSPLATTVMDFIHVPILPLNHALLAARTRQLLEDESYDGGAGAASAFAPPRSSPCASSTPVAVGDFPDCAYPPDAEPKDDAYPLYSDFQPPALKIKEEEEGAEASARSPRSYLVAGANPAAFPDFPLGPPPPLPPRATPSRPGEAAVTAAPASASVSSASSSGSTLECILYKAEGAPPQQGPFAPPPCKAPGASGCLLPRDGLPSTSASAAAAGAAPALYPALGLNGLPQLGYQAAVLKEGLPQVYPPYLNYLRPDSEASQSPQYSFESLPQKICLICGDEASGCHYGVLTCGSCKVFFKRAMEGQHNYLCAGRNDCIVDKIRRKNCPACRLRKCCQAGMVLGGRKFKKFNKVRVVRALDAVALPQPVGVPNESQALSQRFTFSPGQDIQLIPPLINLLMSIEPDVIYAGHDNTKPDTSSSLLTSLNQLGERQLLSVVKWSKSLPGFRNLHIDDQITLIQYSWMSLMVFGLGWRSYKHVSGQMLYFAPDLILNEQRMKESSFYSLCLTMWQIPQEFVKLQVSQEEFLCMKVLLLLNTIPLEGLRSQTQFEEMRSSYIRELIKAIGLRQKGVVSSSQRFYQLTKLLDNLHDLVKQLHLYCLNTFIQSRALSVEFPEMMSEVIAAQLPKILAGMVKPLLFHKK", "settings": "Table 2, PRG; accurate to ±20%"}, "DRD3": {"biological_target": "DRD3 (Homo sapiens, UniProt P35462)", "settings": "Table 2, DRD3; accurate to ±20%"}, "SLCO1B1": {"biological_target": "T4, SLCO1B1 (Homo sapiens, UniProt Q9Y6L6)", "T4 sequence (Q9Y6L6 1-691)": "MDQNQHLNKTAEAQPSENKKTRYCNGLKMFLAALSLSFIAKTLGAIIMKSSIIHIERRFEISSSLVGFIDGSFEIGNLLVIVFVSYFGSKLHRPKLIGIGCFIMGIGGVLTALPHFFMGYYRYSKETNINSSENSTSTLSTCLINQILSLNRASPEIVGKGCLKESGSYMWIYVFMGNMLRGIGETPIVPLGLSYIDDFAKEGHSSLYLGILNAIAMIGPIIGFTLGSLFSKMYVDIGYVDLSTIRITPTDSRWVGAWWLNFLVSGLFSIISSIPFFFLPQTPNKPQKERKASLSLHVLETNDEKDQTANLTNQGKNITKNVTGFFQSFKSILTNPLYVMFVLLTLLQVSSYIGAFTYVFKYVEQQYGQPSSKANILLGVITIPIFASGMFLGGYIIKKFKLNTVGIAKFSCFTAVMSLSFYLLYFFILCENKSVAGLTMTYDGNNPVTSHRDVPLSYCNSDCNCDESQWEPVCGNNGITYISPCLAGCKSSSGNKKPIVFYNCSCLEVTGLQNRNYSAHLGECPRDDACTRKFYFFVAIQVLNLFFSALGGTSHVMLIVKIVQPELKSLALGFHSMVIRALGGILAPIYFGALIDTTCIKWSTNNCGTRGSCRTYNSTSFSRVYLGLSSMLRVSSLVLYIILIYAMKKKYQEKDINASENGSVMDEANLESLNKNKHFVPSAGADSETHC", "test": "in vitro transporter assay, SLCO1B1", "settings": "Table 1, predicted target SLCO1B1"}, "ADORA3": {"biological_target": "ADORA3 (Homo sapiens, UniProt P0DMS8)", "sequence (P0DMS8 whole entry, species assumed)": "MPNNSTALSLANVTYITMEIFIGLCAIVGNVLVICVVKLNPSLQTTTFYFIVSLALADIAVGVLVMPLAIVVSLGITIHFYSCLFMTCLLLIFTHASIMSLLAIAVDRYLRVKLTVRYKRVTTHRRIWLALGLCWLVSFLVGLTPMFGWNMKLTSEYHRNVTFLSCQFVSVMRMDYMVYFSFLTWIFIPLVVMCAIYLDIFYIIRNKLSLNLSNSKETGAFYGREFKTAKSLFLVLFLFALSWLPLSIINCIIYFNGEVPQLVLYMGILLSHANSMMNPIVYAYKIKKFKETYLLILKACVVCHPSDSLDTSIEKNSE", "settings": "Table 2, ADORA3; accurate to ±20%"}, "HTR1A": {"biological_target": "HTR1A (Homo sapiens, UniProt P08908)", "test": "safety panel assay, HTR1A", "assay_type": "binding", "settings": "Table 2, HTR1A; accurate to ±20%"}, "PDE3A": {"biological_target": "PDE3A (Homo sapiens, UniProt Q14432)", "sequence (Q14432 whole entry, species assumed)": "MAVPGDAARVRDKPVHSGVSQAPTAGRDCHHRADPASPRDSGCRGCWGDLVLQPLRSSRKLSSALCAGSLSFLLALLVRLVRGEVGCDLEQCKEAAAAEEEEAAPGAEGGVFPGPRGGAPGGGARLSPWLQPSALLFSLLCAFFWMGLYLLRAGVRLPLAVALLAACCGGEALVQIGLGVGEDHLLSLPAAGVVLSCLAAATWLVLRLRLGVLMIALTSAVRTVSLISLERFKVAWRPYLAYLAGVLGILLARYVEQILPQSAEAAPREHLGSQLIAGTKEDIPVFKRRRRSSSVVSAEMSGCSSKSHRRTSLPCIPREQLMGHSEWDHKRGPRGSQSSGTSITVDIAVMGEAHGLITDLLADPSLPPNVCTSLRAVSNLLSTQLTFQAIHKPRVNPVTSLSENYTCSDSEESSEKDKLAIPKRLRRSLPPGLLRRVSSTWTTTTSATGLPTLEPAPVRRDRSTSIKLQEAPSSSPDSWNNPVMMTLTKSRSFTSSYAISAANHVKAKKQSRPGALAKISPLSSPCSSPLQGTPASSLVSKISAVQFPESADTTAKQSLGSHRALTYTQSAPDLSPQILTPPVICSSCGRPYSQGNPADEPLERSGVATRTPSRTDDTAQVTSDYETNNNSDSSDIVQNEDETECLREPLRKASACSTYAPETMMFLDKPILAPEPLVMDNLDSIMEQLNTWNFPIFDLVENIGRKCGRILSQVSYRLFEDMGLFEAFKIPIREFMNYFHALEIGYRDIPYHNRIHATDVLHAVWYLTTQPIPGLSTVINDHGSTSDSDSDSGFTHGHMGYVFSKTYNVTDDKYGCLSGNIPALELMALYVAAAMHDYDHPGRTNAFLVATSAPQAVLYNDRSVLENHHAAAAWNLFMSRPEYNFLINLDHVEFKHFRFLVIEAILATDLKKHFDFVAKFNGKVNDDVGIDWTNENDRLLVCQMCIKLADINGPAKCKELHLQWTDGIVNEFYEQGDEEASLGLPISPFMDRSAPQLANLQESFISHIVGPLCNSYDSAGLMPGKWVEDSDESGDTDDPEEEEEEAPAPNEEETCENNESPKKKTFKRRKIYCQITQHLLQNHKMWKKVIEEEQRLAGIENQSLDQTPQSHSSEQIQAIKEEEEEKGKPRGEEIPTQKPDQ", "test": "safety panel assay, PDE3A", "assay_type": "biochemical"}, "ACHE": {"biological_target": "ACHE (Homo sapiens, UniProt P22303)", "settings": "Table 2, ACHE; accurate to ±20%"}, "PRMT1": {"biological_target": "PRMT1 (Homo sapiens, UniProt Q99873)", "sequence (Q99873 whole entry)": "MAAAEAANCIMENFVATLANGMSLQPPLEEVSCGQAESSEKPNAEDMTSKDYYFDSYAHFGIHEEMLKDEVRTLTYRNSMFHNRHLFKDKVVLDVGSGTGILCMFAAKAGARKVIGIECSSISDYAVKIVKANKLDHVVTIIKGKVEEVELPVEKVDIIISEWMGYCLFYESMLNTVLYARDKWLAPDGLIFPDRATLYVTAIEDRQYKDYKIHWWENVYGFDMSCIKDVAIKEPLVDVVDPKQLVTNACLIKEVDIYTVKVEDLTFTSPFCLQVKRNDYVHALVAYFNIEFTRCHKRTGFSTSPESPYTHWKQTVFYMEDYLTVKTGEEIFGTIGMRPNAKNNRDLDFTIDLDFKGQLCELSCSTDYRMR", "settings": "Table 1, predicted target PRMT1"}, "[4]": {"test": "not given", "remark": "listed apart in the source"}, "[5]": {"settings": "rat, in vivo, 1 mg/kg"}}, "note": "Peptide text beside a SMILES is read from it."}
{"compound": "COC(=O)[C@H](Cc1ccccc1)NC(=O)[C@@H](N)CC(=O)O", "note": "[Aspartame] (HELM PEPTIDE1{D.F.[CO[*:1]]}$$$$V2.0)", "values": [{"measurement": "Ki/IC50 Or EC50", "setting": "NR1I2", "result": 13, "unit": "µM"}, {"measurement": "activity in the BioMAP cell-based systems", "setting": "[1]; 1.1, 3.3, 10, 30 μM", "result": "no measurable activity"}]}
{"compound": "O=C(O)c1ccccc1", "note": "[Benzoic acid]", "values": [{"measurement": "Ki/IC50 Or EC50", "setting": "ABCB11", "result": 260, "unit": "µM"}, {"measurement": "Ki/IC50 Or EC50", "setting": "SLC18A2", "result": 18, "unit": "µM"}]}
{"compound": "CCCCOC(=O)c1ccc(O)cc1", "note": "[Butylparaben]", "values": [{"measurement": "Ki/IC50 Or EC50", "setting": "SLC6A2", "result": 20, "unit": "µM"}, {"measurement": "Ki/IC50 Or EC50", "setting": "SLCO2B1; Table 2, SLCO2B1, accurate to ±20%", "result": 39, "unit": "µM"}, {"measurement": "Ki/IC50 Or EC50", "setting": "SLC18A2", "result": 6.6, "unit": "µM"}, {"measurement": "IC50", "setting": "TBXA2R", "result": 19, "unit": "µM"}, {"measurement": "Ki/IC50 Or EC50", "setting": "TBXA2R; Table 2, TBXA2R, accurate to ±20%", "result": 19, "unit": "µM"}, {"measurement": "Papp", "setting": "[2]", "result": 8.3, "unit": "×10⁻⁶ cm/s"}, {"measurement": "Ki/IC50 Or EC50", "setting": "ADRA1A", "result": 16, "unit": "µM"}, {"measurement": "Ki/IC50", "setting": "CHRM1; Table 1, predicted target CHRM1", "result": 12, "unit": "µM"}, {"measurement": "Ki/IC50 Or EC50", "setting": "SLC6A3", "result": 18, "unit": "µM"}, {"measurement": "MCP-1 (CCL2) and sPGE2 levels", "setting": "[1]; peripheral blood mononuclear cells and venular endothelial cells", "result": "dose-dependently decreased"}, {"measurement": "concentrations in the blood", "setting": "[3]; dosed at 10 mg/kg oral", "result": "negligible concentrations in the blood"}, {"measurement": "Cmax", "setting": "[3]; in vivo, po, 10 mg/kg", "result": "< 2.6", "unit": "nM"}, {"measurement": "Ki/IC50 Or EC50", "setting": "SCN5A", "result": 33, "unit": "µM"}]}
{"compound": "CCCCCCCCCCCCOS(=O)(=O)[O-].[Na+]", "note": "[Sodium lauryl sulfate]", "values": [{"measurement": "Ki/IC50", "setting": "SLCO2B1; Table 1, predicted target SLCO2B1", "result": 2.8, "unit": "µM"}, {"measurement": "Ki/IC50 Or EC50", "setting": "ADRA1A", "result": 15, "unit": "µM"}, {"measurement": "Ki/IC50 Or EC50", "setting": "CHRM1; Table 2, CHRM1, accurate to ±20%", "result": 29, "unit": "µM"}, {"measurement": "Ki/IC50 Or EC50", "setting": "PDE4D", "result": 23, "unit": "µM"}, {"measurement": "Ki/IC50 Or EC50", "setting": "PRG", "result": 15, "unit": "µM"}, {"measurement": "Ki/IC50 Or EC50", "setting": "DRD3", "result": 18, "unit": "µM"}, {"measurement": "Ki/IC50", "setting": "SLCO1B1", "result": 2.9, "unit": "µM"}, {"measurement": "Ki/IC50 Or EC50", "setting": "ADORA3", "result": 15, "unit": "µM"}, {"measurement": "Ki/IC50 Or EC50", "setting": "HTR1A", "result": 15, "unit": "µM"}]}
{"compound": "FD&C Red No. 3", "values": [{"measurement": "Ki/IC50 Or EC50", "setting": "PDE3A; Table 2, PDE3A, accurate to ±20%", "result": 0.092, "unit": "µM"}, {"measurement": "IC50", "setting": "PDE3A; Table 4, target PDE3A", "result": 0.092, "unit": "µM"}, {"measurement": "Ki/IC50 Or EC50", "setting": "ACHE", "result": 0.42, "unit": "µM"}, {"measurement": "Ki/IC50 Or EC50", "setting": "PDE4D", "result": 0.32, "unit": "µM"}, {"measurement": "MDCK-LE Papp", "result": "<0.5", "unit": "×10⁻⁶ cm/s"}, {"measurement": "Ki/IC50", "setting": "PRMT1", "result": 0.46, "unit": "µM"}, {"measurement": "plasma protein binding", "setting": "[4]", "result": 99, "unit": "%"}, {"measurement": "%F", "setting": "[5]", "result": 0.7, "unit": "%"}]}
